One experiment has as its system cultured astrocytes. The experiment is described as follows: Ca2+ measurements in dye-loaded (Cal520) cultured astrocytes. The class given is cell-based, mouse. The method, then: FIG. 1: AST-004 increases intracellular Ca^2+ in cultured astrocytes. A) Image of resting Ca^2+ levels in dye-loaded (Cal520) astrocytes. B) Spatio-temporal plot of Ca^2+ fluorescence for the vertical line in panel A. AST-004 was added at 2 min. Note the oscillatory Ca^2+ responses for over 6 minutes. C) Plot of integrated Ca^2+ fluorescence intensities (DF/F0) at the indicated A3R agonist concentrations. Values are mean+/−SEM (data pooled from 3 experiments at each concentration). Images were acquired on the Nikon Sweptfield confocal microscope.
The low level stimulation of Ca2+ release persisted throughout the recording (FIG. 1A,B). It was not blocked by pertussis toxin treatment, consistent with Gq-coupling. The integrated Ca^2+ response was also dose-dependent (FIG. 1C) and present in astrocytes cultured from mouse, rat, pig and human brain tissue.
Protocol was modified from McCarthy et al., 1980 (4). Briefly, mice were anesthetized with isoflurane then cervically dislocated. Brains were quickly removed and chopped in trypsin, and allowed to incubate at 37° C. for 30 mins. DMEM/F-12 Media with 10% FCS and primocin was added and brains were triturated to homogenization and filtered through […] mesh, and seeded into culture flasks. The next day, homogenates were transferred to a new flask, and previous flasks had new media added. Cells were grown for 3-4 weeks, with DMEM/F-12 media changes every 3-4 days until cells were 70% confluent.
Ca^2+ activity was imaged as previously described (5). In brief, astrocytes were seeded on glass cover slips 3 and 4 nights before each experiment. Culture dishes were incubated with a fluorescent Ca^2+ sensitive dye (10 μM, Cal520, cell permeant, Abcam) 30 min prior to the experiment. Images were acquired with a confocal laser-scanning microscope at the rate of 1.5 images/s. Data were obtained in recording buffer (120 mM NaCl, 4.5 mM KCl, 1 mm CaCl2), 2 mM MgCl2, 10 mM HEPES, pH 7.4) at room temperature. Images were analyzed with Image J and NIS Elements.

For the next experiment, the system named is astrocytes (C8-D1A). The experiment is described as follows: Oxygen consumption rate (OCR), Seahorse. The class given is cell-based. How it is done: FIG. 2: Oxygen Consumption Rate (OCR) is increased by purinergic agonist AST-004. Cultured astrocytes were plated on a standard Seahorse dish (24 well). After establishing basal OCR, purinergic agonist AST-004 or control (antagonist) was added at first arrow. […] The final addition of mitochondrial inhibitors uncovered non-mitochondrial OCR sources.
We previously reported that any agonist stimulating IP3-mediated Ca^2+ increases in astrocytes increased ATP production in astrocytes (1). […] Minimal change was observed under control injections. […] Addition of rotenone and antimycin uncovered non-mitochondrial sources of oxygen consumption, which was subtracted off from all measurements prior to calculations.
OCR was measured to calculate mitochondrial respiration and performed with a Seahorse XF96 extracellular flux analyzer. A 96-well system measures OCR from a monolayer of cultured intact cells, at intervals of ˜5 minutes. Astrocytes were plated on Seahorse microplates at least 2 days prior to OCR measurements. […] Injection of rotenone and antimycin, inhibitors of complex I and III respectively, uncover non-mitochondrial oxygen consumption.

For experiment [1], the system named is photothrombosis-induced stroke. The experiment is described as follows: Photothrombotic induced model of stroke, lesion volume by TTC staining. Format: in vivo, mouse.
For experiment [2], the system named is astrocytes of transgenic mice expressing the Luciferase-reporter gene (GFAP promoter). The experiment is described as follows: In vivo bioluminescent imaging of ATP in astrocytes after blunt TBI. Set-up: species or system mouse. The following applies: IP injection, two to 4 days after TBI, vs vehicle. The method, then: FIG. 5: In Vivo Bioluminescent Imaging indicates AST-004 increases ATP. A) Transgenic mice expressing the Luciferase-reporter gene in astrocytes (GFAP promoter) were subjected to blunt TBI (Closed Cortical Impact). Two to 4 days after the initial trauma, mice were IP injected with a synthetic D-luciferin analogue (Cytluc1, 100 ul). Bioluminescent signals were recorded with an IVIS Spectrum Imager, 5 min after Cycluc1 injection (green arrow). Mice were then IP injected with either vehicle or AST-004 at […] (blue arrow), the photon flux immediately measured and then compared to the photon flux at 20 minutes (red arrow).
Transgenic mice expressing the Luciferase-reporter gene in astrocytes (GFAP promoter, Dual-Glo mice, Jackson laboratories) were subjected to blunt TBI (Closed Cortical Impact). Two to 4 days after the initial trauma, mice were IP injected with a synthetic D-luciferin analogue (Cycluc 1) and bioluminescent signals recorded on an IVIS Spectrum Imager (FIG. 5A).

For a further experiment, the system named is astrocytes. The experiment is described as follows: Determination of ATP levels in astrocytes (luciferin-luciferase kit), control or GLUD1 shRNA. Format: cell-based. How it is done: FIG. 7: GLUD1 Knockdown (KD) in astrocytes blocks P2Y1R and A3R-stimulated increases in ATP. A, B) Cells were treated with P2Y1R agonist MRS2365 for 20 mins in either normal glucose medium (A) or a glucose-free, galactose (B) supplemented media. Galactose forces cells to use oxidative phosphorylation for energy metabolism. […] Intracellular ATP levels were measured with a luciferin-luciferase kit.
P2Y1R and A3R agonists increased mitochondrial ATP production in astrocytes in a manner that was dependent on GLUD1 expression. One possible hypothesis is that glutamate catabolism into α-KG is mediated by GLUD1, which is enhanced by Ca^2+ dependent stimulation of the ICDH and α-KGDH in the TCA cycle. To test this hypothesis, GLUD1 expression levels were reduced in astrocyte cultures by incubating cells with specific shRNA. […] We repeated these experiments in the presence of galactose, a carbon source that forces cells to generate ATP though oxidative phosphorylation, since glycolysis of galactose is ATP neutral.
Cells were transduced with shRNA lentivirus constructs obtained from Santa Cruz (glud1 #145446-V, for Scrambled #108080). Cells were then seeded at single cell/well densities in a 96-well dish and selected for with puromycin. Clones were grown and tested for knockdown by western blot.
Astrocytes were plated at a density of 3000-5000 cells/well in a white, opaque-bottom 96-well dish (Corning). If cells were tested in galactose medium, they were seeded in galactose medium, and left for a minimum of 16 hours before subjected to treatment. Galactose medium was made with glucose-, pyruvate-, phenol-, and glutamine-free DMEM (Gibco) which was then supplemented with 0.9 mg/ml galactose (Sigma), pyruvate (Quality biological, Inc), and 10% dialyzed FBS (Gibco). Treatments were performed for 20 min unless otherwise stated and concentrations of drugs described elsewhere. Drugs used: MRS2365, MRS2500, AST-004, 3-Propyl-6-ethyl-5-[(ethylthio)carbonyl]-2 phenyl-4-propyl-3-pyridine carboxylate (MRS1523) (Tocris Bioscience), sodium dichloroacetate (DCA) (Sigma Aldrich), Oligomycin (Sigma Aldrich), 1-(2-(2-tert-Butylphenoxy)pyridin-3-yl)-3-(4-(trifluoromethoxy)phenyl)urea (BPTU) (Millipore), and Ruthenium 360 (Cal Biochem). Next, media was removed from cells, and 100 μl fresh media immediately added. Then, 95 μl of mixed luminescence substrate from the ATPlite 1-Step kit were added (Perkin-Elmer). Plates were wrapped in aluminum foil and shaken for 3 min on a plate rotator before reading on a luminometer. Readings were normalized to protein as determined by Coomassie Plus Bradford assay (Thermo Fisher). All statistics were analyzed using GraphPad Prism software.

The subject of experiment [3] is cocaine self-administering mice. Nature of the experiment: Cocaine self-administration. The following applies: osmotic minipump, 100 μL at 2.78 mM. Format: in vivo, mouse. How it is done:
Data that are normalized to each mouse's individual cocaine intake at baseline. Mice were trained to self-administer cocaine (0.5 mg/kg/infusion) on a fixed ratio 3 schedule in 2-hr daily sessions. After their intake stabilized (baseline) mice were implanted with osmotic minipumps on day 0 either containing saline (filled circles) or the drug AST-004 (open circles), n=5 mice in each group. Mice were given a day off (day 7), then returned to self-administration in daily sessions. Note the number of infusions goes down in the AST-004 treated mice, while saline treated mice increased infusions.
We used procedures adapted from our recently published work that describes i.v. cocaine self-administration in fully fed mice (6, 7). Male C57BL/6J mice (6 to 7-week-old) purchased from Jackson labs and were kept on a 12/12-hour reverse light-dark cycle (lights off at 0900 h) with ad libitum access to food and water. Cocaine hydrochloride (generously provided by the NIDA drug supply program, Bethesda, MD) was dissolved in sterile physiological saline (NaCl 0.9%). Cocaine was prepared at a concentration that delivers 0.5 mg/kg/12 μL per infusion, based on a typical weight of a young adult mouse (28 g). Mice were implanted with an indwelling catheter in the right jugular vein. […]

Experiment [4] has as its system traumatic brain injury (TBI). Nature of the experiment: Traumatic brain injury (TBI), GFAP expression by Western blot. The following applies: for TBI induced increases in GFAP expression: treatment 30 min post-TBI, ipsilateral brain homogenates and plasma at day 7, vs TBI untreated.
Procedure: Mice underwent sham or TBI (on Ipsilateral side of brain) and received treatments as labeled 30 min post-TBI. Plasma was obtained from mice at 7 days post-injury, then sacrificed to obtain brain homogenates from the ipsilateral and contralateral hemispheres (middle third). Western blot analysis were normalized to actin. (A and C) Representative blots are shown for Ipsilateral brain homogenates and the plasma at day 7. (B and D) Data were pooled from 3 distinct experiments (N=number of mice per treatment) and plotted as bar histograms, shown as mean of control+/−SEM. *p<0.05 and ** p<0.01 from TBI untreated (dark gray bar).
[5] abbreviates: 20 min treatment, normal glucose medium.

As to `CSc1nc(N)c2ncn([C@H]3[C@H](O)[C@H](O)[C@]4(CO)C[C@H]34)c2n1` [AST-004], the “integrated Ca2+ response” value with cultured astrocytes (astrocytes cultured from mouse, rat, pig and human brain tissue) is “dose-dependent”. Also, the “intracellular Ca2+” value with cultured astrocytes (cultured astrocytes, Cal520 dye) is on record as “stimulates intracellular Ca2+”. In addition, in the experiment on cultured astrocytes (pertussis toxin treatment, consistent with Gq-coupling), the “stimulation of Ca2+ release under pertussis toxin treatment” value was “not blocked”. Besides, in the experiment with astrocytes (C8-D1A) (400 nM), the “ATP production (OCR revealed by oligomycin)” value is reported as “significantly greater”. Besides, the “basal respiration (OCR)” value in the experiment on astrocytes (C8-D1A) (after addition to the bath at 15 minutes, vs control injections) was “increased”. The “maximal respiration (OCR after FCCP)” value in the experiment with astrocytes (C8-D1A) (uncoupling by FCCP) is given as “significantly higher”. Moreover, in experiment [1] (0.2 mg/kg, intraperitoneally within 30 min post stroke, 24 hours post-stroke, vs vehicle), the stroke infarction volume result is reported as “significantly reduced”. In addition, in experiment [2], the “photon flux levels (ATP-production in astrocytes)” value is reported as “significantly higher”. For the same compound, the “ATP levels, control cells (scrambled shRNA)” value in the experiment with astrocytes (setting [5]) was “increased ATP levels in a GLUD1-dependent manner”. In experiment [3] (FR3, 2-hr daily sessions, vs saline), the cocaine self-administration result is given as “significantly reduces”. The “cocaine intake normalized to baseline” value in experiment [3] (over 2 weeks, n=5) is “approximately 60 % of baseline”. Moreover, in experiment [4] (mice), the “neuroprotection after traumatic brain injury (TBI)” value is “neuroprotective”. Also, the “TBI induced increases in GFAP expression” value in experiment [4] is listed as “reduced”.

In the case of `CCCOC(=O)c1c(-c2ccccc2)nc(CC)c(C(=O)SCC)c1CCC` [MRS1523, 3-Propyl-6-ethyl-5-[(ethylthio)carbonyl]-2 phenyl-4-propyl-3-pyridine carboxylate, reference compound], the “reduction of stroke infarction volume by AST-004 after antagonist pretreatment” value in experiment [1] (pretreatment with the A3R antagonist) is “blocked”.

For the compound `CSc1nc(N)c2ncn([C@H]3[C@H](O)[C@H](O)[C@]4(COP(=O)(O)OP(=O)(O)O)C[C@H]34)c2n1` [MRS2365], the “ATP levels, control cells (scrambled shRNA), galactose medium” value with astrocytes (20 min treatment, glucose-free, galactose supplemented media) was “significantly increased”. Also, in the experiment with astrocytes (setting [5]), the “ATP levels, astrocytes with reduced levels of GLUD1 (GLUD1 shRNA)” value is “not responsive” and the “ATP levels, control cells (scrambled shRNA)” value is recorded as “significantly increased”. The “ATP levels, astrocytes with reduced GLUD1 levels, galactose medium” value in the experiment on astrocytes (in the presence of galactose) was “similarly non-responsive”. Moreover, the “TBI induced increases in GFAP expression” value in experiment [4] is “reduced”.

Values taken from patent publication US11839615B2, “Compounds and methods for treating addiction and related disorders” (Astrocyte Pharmaceuticals, Inc., priority 2018, dated 2023).
